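Test compounds were applied to cells in 96-well plates for 48 hours at 5 doses. GI50 marks 50% less growth.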 Calls of active or inactive are those of the source. Rule as the data show it: active = GI50 up to about 1.1 µM and inactive = higher.
Key:
Assay in all cases: DTP human tumour cell line panel, 48 h
ACHN = test system: ACHN
A549 = test system: A549
CAKI-1 = test system: CAKI-1
DLD-1 = test system: DLD-1
IGROV-1 = test system: IGROV-1
SK-OV-3 = test system: SK-OV-3
LOX IMVI = test system: LOX IMVI
M14 = test system: M14
MOLT-4 = test system: MOLT-4
LXFL 529 = test system: LXFL 529
DMS-273 = test system: DMS-273
CCRF-CEM = test system: CCRF-CEM
UACC-257 = test system: UACC-257
UO-31 = test system: UO-31
U-251 = test system: U-251
OVCAR-5 = test system: OVCAR-5
NCI-H226 = test system: NCI-H226
SK-MEL-28 = test system: SK-MEL-28
HOP-62 = test system: HOP-62
A498 = test system: A498
SR = test system: SR
EKVX = test system: EKVX
SN12C = test system: SN12C
SK-MEL-2 = test system: SK-MEL-2
HOP-18 = test system: HOP-18
SF-268 = test system: SF-268
OVCAR-4 = test system: OVCAR-4
SNB-19 = test system: SNB-19
SK-MEL-5 = test system: SK-MEL-5
SW-620 = test system: SW-620
OVCAR-3 = test system: OVCAR-3
HCT-116 = test system: HCT-116
NCI-H460 = test system: NCI-H460
SF-539 = test system: SF-539
SF-295 = test system: SF-295
SNB-78 = test system: SNB-78
HT-29 = test system: HT-29
M19-MEL = test system: M19-MEL
OVCAR-8 = test system: OVCAR-8
XF498 = test system: XF498
NCI-H522 = test system: NCI-H522
KM-20L2 = test system: KM-20L2
K562 = test system: K562
RXF 631 = test system: RXF 631
RPMI-8226 = test system: RPMI-8226
SNB-75 = test system: SNB-75
COLO 205 = test system: COLO 205
Malme-3M = test system: Malme-3M
UACC-62 = test system: UACC-62
HOP-92 = test system: HOP-92
NCI-H23 = test system: NCI-H23
DMS-114 = test system: DMS-114
786-0 = test system: 786-0
HCC 2998 = test system: HCC 2998
KM12 = test system: KM12
TK-10 = test system: TK-10

Measured: GI50

C#CCOCn1cnc2ncnc(Cl)c21
inactive: ACHN > 100 µM | A549 > 100 µM | CAKI-1 > 100 µM | DLD-1 > 100 µM | IGROV-1 > 100 µM | SK-OV-3 > 100 µM | LOX IMVI > 100 µM | M14 > 100 µM | MOLT-4 > 100 µM | LXFL 529 > 100 µM | DMS-273 > 100 µM | CCRF-CEM > 100 µM | UACC-257 > 100 µM | UO-31 > 100 µM | U-251 > 100 µM | OVCAR-5 > 100 µM | NCI-H226 > 100 µM | SK-MEL-28 > 100 µM | HOP-62 > 100 µM | A498 > 100 µM | SR > 100 µM | EKVX > 100 µM | SN12C > 100 µM | SK-MEL-2 > 100 µM | HOP-18 > 100 µM | SF-268 > 100 µM | OVCAR-4 > 100 µM | SNB-19 > 100 µM | SK-MEL-5 > 100 µM | SW-620 > 100 µM | OVCAR-3 > 100 µM | HCT-116 > 100 µM | NCI-H460 > 100 µM | SF-539 > 100 µM | SF-295 > 100 µM | SNB-78 > 100 µM | HT-29 > 100 µM | M19-MEL > 100 µM | OVCAR-8 > 100 µM | XF498 > 100 µM | NCI-H522 > 100 µM | KM-20L2 > 100 µM | K562 > 100 µM | RXF 631 > 100 µM | RPMI-8226 > 100 µM | SNB-75 > 100 µM | COLO 205 > 100 µM | Malme-3M > 100 µM | UACC-62 > 100 µM | HOP-92 > 100 µM | NCI-H23 > 100 µM | DMS-114 > 100 µM | 786-0 > 100 µM | HCC 2998 > 100 µM | KM12 > 100 µM | TK-10 > 100 µM

Reference: ChEMBL document CHEMBL1201862, “PubChem BioAssay data set” (2004)
